The assay concerns the target T1, mPz1 (mouse Piezo1) (Mus musculus, UniProt E2JF22).
T1 construct: full-length, mPz1-IRES-GFP plasmid (clone from A. Patapoutian) in mouse Neuro2A cells; also purified/enriched mPz1 in planar lipid bilayer; homotrimer
The experiment in a line: single-channel recording in planar lipid bilayer. As to conditions: purified mPz1, 500 mM KCl, 10 mM MOPS, pH 7.4. The class given is biochemical.

Each structure is given as a SMILES string.

T1 sequence (E2JF22 whole entry): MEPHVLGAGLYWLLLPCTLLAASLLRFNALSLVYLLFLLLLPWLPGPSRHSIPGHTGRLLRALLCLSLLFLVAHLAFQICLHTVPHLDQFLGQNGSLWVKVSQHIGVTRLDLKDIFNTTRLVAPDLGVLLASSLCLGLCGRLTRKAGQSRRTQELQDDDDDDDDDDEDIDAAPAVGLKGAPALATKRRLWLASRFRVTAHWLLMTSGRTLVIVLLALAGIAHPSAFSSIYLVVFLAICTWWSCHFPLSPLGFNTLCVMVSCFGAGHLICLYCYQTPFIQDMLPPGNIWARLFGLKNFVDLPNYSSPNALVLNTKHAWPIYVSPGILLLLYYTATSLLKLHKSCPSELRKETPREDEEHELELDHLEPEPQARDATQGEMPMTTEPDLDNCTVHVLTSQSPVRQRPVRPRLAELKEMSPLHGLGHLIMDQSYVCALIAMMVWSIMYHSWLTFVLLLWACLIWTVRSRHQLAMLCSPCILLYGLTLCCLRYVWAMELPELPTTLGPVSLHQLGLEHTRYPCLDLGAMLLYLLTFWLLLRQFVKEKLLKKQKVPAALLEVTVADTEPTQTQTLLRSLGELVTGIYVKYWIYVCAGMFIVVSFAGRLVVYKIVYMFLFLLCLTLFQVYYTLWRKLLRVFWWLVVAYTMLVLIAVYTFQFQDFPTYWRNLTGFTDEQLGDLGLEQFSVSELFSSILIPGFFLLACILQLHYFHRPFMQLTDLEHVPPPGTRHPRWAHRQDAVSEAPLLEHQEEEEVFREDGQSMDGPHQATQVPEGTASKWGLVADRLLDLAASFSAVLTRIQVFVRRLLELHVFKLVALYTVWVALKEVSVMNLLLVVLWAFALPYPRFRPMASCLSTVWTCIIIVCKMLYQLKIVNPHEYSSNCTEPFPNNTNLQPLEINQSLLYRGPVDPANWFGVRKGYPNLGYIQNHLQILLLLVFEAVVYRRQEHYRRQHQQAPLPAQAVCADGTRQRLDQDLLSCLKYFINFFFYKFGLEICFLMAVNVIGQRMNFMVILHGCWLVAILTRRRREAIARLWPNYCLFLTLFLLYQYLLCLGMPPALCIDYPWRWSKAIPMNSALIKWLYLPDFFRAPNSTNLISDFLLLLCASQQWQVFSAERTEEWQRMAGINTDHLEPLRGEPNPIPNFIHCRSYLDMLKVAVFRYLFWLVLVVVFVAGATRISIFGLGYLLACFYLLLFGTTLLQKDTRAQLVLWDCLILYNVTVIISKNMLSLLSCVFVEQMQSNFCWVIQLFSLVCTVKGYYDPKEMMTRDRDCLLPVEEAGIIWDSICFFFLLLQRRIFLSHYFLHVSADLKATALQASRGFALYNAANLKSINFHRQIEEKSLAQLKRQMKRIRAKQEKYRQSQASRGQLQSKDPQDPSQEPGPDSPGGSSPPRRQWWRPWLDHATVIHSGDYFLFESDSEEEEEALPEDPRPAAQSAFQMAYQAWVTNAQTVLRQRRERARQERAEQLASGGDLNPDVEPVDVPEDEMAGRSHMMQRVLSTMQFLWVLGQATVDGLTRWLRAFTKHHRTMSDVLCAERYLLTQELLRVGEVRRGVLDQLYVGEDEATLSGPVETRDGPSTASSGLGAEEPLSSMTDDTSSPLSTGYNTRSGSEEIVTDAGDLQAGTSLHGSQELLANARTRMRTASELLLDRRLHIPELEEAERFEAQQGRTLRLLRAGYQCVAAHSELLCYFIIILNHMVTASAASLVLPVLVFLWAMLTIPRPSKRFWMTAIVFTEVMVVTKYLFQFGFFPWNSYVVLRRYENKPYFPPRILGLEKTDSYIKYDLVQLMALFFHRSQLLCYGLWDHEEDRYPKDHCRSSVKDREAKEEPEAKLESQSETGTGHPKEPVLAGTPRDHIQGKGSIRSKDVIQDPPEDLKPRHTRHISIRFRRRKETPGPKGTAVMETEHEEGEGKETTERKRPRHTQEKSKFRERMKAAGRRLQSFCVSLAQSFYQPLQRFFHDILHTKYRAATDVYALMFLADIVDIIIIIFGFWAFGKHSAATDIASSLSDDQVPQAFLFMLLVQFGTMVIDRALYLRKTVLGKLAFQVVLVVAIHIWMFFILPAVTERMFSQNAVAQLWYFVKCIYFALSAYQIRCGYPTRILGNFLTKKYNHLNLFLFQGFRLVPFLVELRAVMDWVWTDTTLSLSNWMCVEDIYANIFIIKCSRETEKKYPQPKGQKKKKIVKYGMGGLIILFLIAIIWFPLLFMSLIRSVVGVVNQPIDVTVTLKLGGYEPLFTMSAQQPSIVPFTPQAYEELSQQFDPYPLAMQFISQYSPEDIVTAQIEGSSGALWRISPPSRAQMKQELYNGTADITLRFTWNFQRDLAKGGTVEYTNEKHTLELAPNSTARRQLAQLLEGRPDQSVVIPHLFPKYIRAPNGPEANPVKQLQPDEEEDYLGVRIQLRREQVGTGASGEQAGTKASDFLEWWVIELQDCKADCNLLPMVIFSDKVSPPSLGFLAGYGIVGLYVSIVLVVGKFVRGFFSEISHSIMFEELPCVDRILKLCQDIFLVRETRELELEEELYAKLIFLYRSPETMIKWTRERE

Take `CN[C@@H]1[C@H](O[C@H]2[C@H](O[C@H]3[C@H](O)[C@@H](O)[C@H](N=C(N)N)[C@@H](O)[C@@H]3N=C(N)N)O[C@@H](C)[C@]2(O)CO)O[C@@H](CO)[C@H](O)[C@H]1O` [dihydrostreptomycin]: the “single-channel recording in planar lipid bilayer” value was “DHS, GsMTx4, and ruthenium blocked the mPz1-channel activity in lipid bilayers”.

Values taken from article PMC10791687, “The Piezo channel is a mechano-sensitive complex component in the mammalian inner ear hair cell” (Nature Communications, 2024).
